Reference: EPA's ToxValDB 9.5
“And” between values parts separate entries of the source, which are not always exact repeats. Equal entries are not always repeated.

Legend:
[1] = system: Mus musculus; details: subchronic, duration: 90 days, inhalation, Crl:CD-1 (ICR) BR
[2] = system: Oryctolagus sp.; details: duration: 12 days, inhalation, New Zealand
[3] = F, General Toxicity: Whole Body: Body Weight Change + General Toxicity: Whole Body: Clinical Observations + General Toxicity: Whole Body: …
[4] = F, Nervous: Brain: Brain Weight, Absolute + Nervous: Brain: Brain Weight, Relative
[5] = M, Blood: Triglycerides (TRIG), Blood + Whole Body: Mortality
[6] = M, General Toxicity: Whole Body: Body Weight Change + General Toxicity: Whole Body: Clinical Observations + General Toxicity: Whole Body: …
[7] = M, Nervous: Brain: Brain Weight, Absolute + Nervous: Brain: Brain Weight, Relative
[8] = reproduction developmental, F, generation: P0, P0: Developmental: Uterus: Implantation + P0: Developmental: Uterus: Pre-Implantation Loss + P0: Developmental: Uterus: Resorptions, Mean/…
[9] = reproduction developmental, F, generation: P0, P0: Developmental: Uterus: Resorptions, Mean/Litter + P0: General Toxicity: Whole Body: Body Weight Change + P0: General Toxicity: Whole …
[10] = reproduction developmental, F, generation: P0, P0: Whole Body: Clinical Observations

## FC(Cl)C(F)(F)F (stereo not given) [2-Chloro-1,1,1,2-tetrafluoroethane]
[1]; F, Adrenal: Adrenal Gland Weight, Absolute + Adrenal: Adrenal Gland Weight, Relative + Blood: Hematology, Unspecified + Brain: Brain Weight, …
  NEL: 279000 mg/m3
[1]; F, Cardiovascular: Heart: Heart Weight, Absolute + Cardiovascular: Heart: Heart Weight, Relative + Endocrine: Adrenal: Adrenal Gland Weight, …
  LOAEL: 83700 mg/m3
[1]; [3]
  LOAEL: 279000 mg/m3
  NOAEL: 83700 mg/m3
[1]; [4]
  LOAEL: 83700 mg/m3
  NOAEL: 27900 mg/m3
[1]; F, Whole Body: Mortality
  LEL: 27900 mg/m3
[1]; M, Adrenal: Adrenal Gland Weight, Absolute + Adrenal: Adrenal Gland Weight, Relative + Blood: Hematology, Unspecified + Brain: Brain Weight, …
  NEL: 279000 mg/m3
[1]; [5]
  LEL: 83700 mg/m3
  NEL: 27900 mg/m3
[1]; M, Cardiovascular: Heart: Heart Weight, Absolute + Cardiovascular: Heart: Heart Weight, Relative + Endocrine: Adrenal: Adrenal Gland Weight, …
  LOAEL: 83700 mg/m3
[1]; [6]
  LOAEL: 279000 mg/m3
  NOAEL: 83700 mg/m3
[1]; M, Heart: Heart Weight, Relative + Whole Body: Body Weight Change
  LEL: 27900 mg/m3
[1]; [7]
  LOAEL: 83700 mg/m3
  NOAEL: 27900 mg/m3
[2]; developmental, M/F, generation: F1, F1: Developmental: Uterus: Dead Fetuses + F1: Developmental: Uterus: Fetuses, Live + F1: Developmental: Whole Body: Body Weight, Fetal + F1…
  NOAEL: 279000 mg/m3
[2]; developmental, M/F, generation: F1, F1: Developmental: Whole Body: External Abnormalities + F1: Developmental: Whole Body: Live Pups Born + F1: Developmental: Whole Body: Pup …
  NOAEL: 27900 mg/m3 and 83700 mg/m3
[2]; developmental, M/F, generation: F1, F1: Uterus: Fetuses, Dead + F1: Uterus: Fetuses, Live + F1: Whole Body: Body Weight, Fetal + F1: Whole Body: External Abnormalities
  NEL: 279000 mg/m3
[2]; developmental, M/F, generation: F1, F1: Whole Body: External Abnormalities + F1: Whole Body: Live Pups Born + F1: Whole Body: Pup Weight Relative to Litter + F1: Whole Body: …
  NEL: 279000 mg/m3
[2]; reproduction developmental, F, generation: P0, P0: Developmental: Uterus: Implantation + P0: Developmental: Uterus: Number of Viable Fetuses + P0: Developmental: Uterus: Pre-Implantation …
  NOAEL: 279000 mg/m3
[2]; [8]
  LOAEL: 83700 mg/m3
  NOAEL: 27900 mg/m3
[2]; reproduction developmental, F, generation: P0, P0: Developmental: Uterus: Implantation + P0: Developmental: Uterus: Pre-Implantation Loss + P0: Reproductive: Ovary: Corpora Lutea
  NOAEL: 279000 mg/m3
[2]; [9]
  LOAEL: 279000 mg/m3
  NOAEL: 83700 mg/m3
[2]; reproduction developmental, F, generation: P0, P0: Liver: Liver Weight, Absolute + P0: Liver: Liver Weight, Relative + P0: Ovary: Corpora Lutea + P0: Uterus: Implantation + P0: Uterus: …
  NEL: 279000 mg/m3
[2]; reproduction developmental, F, generation: P0, P0: Ovary: Corpora Lutea + P0: Uterus: Implantation + P0: Uterus: Pre-Implantation Loss + P0: Uterus: Resorptions, Mean/Litter + P0: Whole …
  NEL: 279000 mg/m3
[2]; [10]
  LEL: 279000 mg/m3
  NEL: 83700 mg/m3
